Like-named read-outs stand apart in the source and are kept apart here.
What was measured:
[1] = biological target: GLP-1R (Homo sapiens, UniProt P43220); assay: HitHunter cAMP assay (GLP-1R); type: cell-based; settings: cAMP; for Emax: read-out: (Emax) GLP-1R
Summary of the method: (§1)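 Duplicate 22-point, 2-fold agonist titrations applied to receptor-expressing suspension cells in IBMX-containing HBSS; 30 min RT stimulation. Read: luminescent cAMP immunocompetition after O/N dark incubation.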

[2] = biological target: T1, GIP-R (Homo sapiens, UniProt P48546); assay: HitHunter cAMP assay (GIP-R); type: cell-based; settings: cAMP; for Emax: read-out: (Emax) GIP-R
T1 sequence (P48546 22-466): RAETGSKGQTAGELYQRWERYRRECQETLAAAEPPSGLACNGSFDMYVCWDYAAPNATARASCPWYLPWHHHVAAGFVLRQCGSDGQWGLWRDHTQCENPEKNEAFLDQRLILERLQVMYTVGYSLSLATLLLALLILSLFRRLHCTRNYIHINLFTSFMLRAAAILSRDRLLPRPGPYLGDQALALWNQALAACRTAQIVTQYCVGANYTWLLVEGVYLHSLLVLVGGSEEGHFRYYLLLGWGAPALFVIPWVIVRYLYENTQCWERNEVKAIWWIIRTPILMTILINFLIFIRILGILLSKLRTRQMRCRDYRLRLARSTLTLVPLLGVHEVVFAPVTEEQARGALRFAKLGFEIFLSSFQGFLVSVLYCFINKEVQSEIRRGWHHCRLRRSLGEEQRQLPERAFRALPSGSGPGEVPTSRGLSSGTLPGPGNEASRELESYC
Summary of the method: as §1

[3] = Table 3, read-out: EC50 GLP-1R/nM
[4] = Table 3A, read-out: EC50 GLP-1R/nM
[5] = Table 3, read-out: EC50 GIP-R/nM
[6] = Table 3A, read-out: EC50 GIP-R/nM
[7] = read-out: (Emax) GIP-R at 1 μM, Table 3

Chain of GLP-1R (P43220 24-463): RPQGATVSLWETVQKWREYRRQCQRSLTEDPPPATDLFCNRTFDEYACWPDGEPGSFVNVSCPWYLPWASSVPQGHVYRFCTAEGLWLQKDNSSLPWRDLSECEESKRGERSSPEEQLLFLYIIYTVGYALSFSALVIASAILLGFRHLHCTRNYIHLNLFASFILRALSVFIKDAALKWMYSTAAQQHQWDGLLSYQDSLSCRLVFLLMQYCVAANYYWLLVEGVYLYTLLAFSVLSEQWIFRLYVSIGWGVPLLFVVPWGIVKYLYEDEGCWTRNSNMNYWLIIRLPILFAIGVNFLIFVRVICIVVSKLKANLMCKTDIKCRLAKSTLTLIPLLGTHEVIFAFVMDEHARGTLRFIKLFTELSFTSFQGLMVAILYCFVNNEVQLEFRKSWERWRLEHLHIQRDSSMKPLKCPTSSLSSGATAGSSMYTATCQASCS

Work on `CCCCCCCCCCCCCCCC(=O)N[C@@H](CCC(=O)NCCCC[C@H](NC(=O)[C@H](CO)NC(=O)[C@@H]1CCCN1C(=O)[C@@H]1CCCN1C(=O)[C@@H]1CCCN1C(=O)[C@H](C)NC(=O)CNC(=O)[C@H](CO)NC(=O)[C@H](CO)NC(=O)[C@@H]1CCCN1C(=O)CNC(=O)CNC(=O)[C@H](C)NC(=O)[C@H](CC(C)C)NC(=O)[C@H](CC(C)C)NC(=O)[C@H](Cc1c[nH]c2ccccc12)NC(=O)[C@H](CC(N)=O)NC(=O)[C@@H](NC(=O)[C@H](Cc1ccccc1)NC(=O)[C@H](CCC(=O)O)NC(=O)C(C)(C)NC(=O)[C@H](C)NC(=O)[C@H](C)NC(=O)[C@H](CCC(N)=O)NC(=O)[C@H](CCCCN)NC(=O)[C@H](CC(=O)O)NC(=O)[C@H](CC(C)C)NC(=O)[C@H](Cc1ccc(O)cc1)NC(=O)[C@@H](NC(=O)[C@H](CO)NC(=O)[C@H](Cc1ccc(O)cc1)NC(=O)[C@H](CC(=O)O)NC(=O)[C@H](CO)NC(=O)[C@@H](NC(=O)[C@H](Cc1ccccc1)NC(=O)[C@@H](NC(=O)CNC(=O)[C@H](CCC(=O)O)NC(=O)CSCC(=O)NCCN1C(=O)[C@@H](C)[C@H](C)C1=O)[C@@H](C)O)[C@@H](C)O)[C@@H](C)CC)C(C)C)C(N)=O)C(=O)O` (single isomer, unassigned) [Compound 63] yielded an Emax ([1]; Table 3) of 91%, an Emax ([1]; Table 3A) of 91% and an Emax ([2]; Table 3) of 24%. The Emax ([2]; Table 3A) was 24%.

In the case of `CC[C@H](C)[C@H](NC(=O)[C@H](CO)NC(=O)[C@H](Cc1ccc(O)cc1)NC(=O)[C@H](CC(=O)O)NC(=O)[C@H](CO)NC(=O)[C@@H](NC(=O)[C@H](Cc1ccccc1)NC(=O)[C@@H](NC(=O)CNC(=O)[C@H](CCC(=O)O)NC(=O)CSCC(=O)NCCN1C(=O)c2cccc([N+](=O)[O-])c2C1=O)[C@@H](C)O)[C@@H](C)O)C(=O)N[C@@H](Cc1ccc(O)cc1)C(=O)N[C@@H](CC(C)C)C(=O)N[C@@H](CC(=O)O)C(=O)N[C@@H](CCCCN)C(=O)N[C@@H](CCC(N)=O)C(=O)N[C@@H](C)C(=O)N[C@@H](C)C(=O)NC(C)(C)C(=O)N[C@@H](CCC(=O)O)C(=O)N[C@@H](Cc1ccccc1)C(=O)N[C@H](C(=O)N[C@@H](CC(N)=O)C(=O)N[C@@H](Cc1c[nH]c2ccccc12)C(=O)N[C@@H](CC(C)C)C(=O)N[C@@H](CC(C)C)C(=O)N[C@@H](C)C(=O)NCC(=O)NCC(=O)N1CCC[C@H]1C(=O)N[C@@H](CO)C(=O)N[C@@H](CO)C(=O)NCC(=O)N[C@@H](C)C(=O)N1CCC[C@H]1C(=O)N1CCC[C@H]1C(=O)N1CCC[C@H]1C(=O)N[C@@H](CO)C(=O)N[C@@H](CCCCN)C(N)=O)C(C)C` [Compound 108], the EC50 ([1]; EC50 GLP-1R/nM, Table 3) is reported as over 1000 nM, the EC50 ([1]; EC50 GLP-1R/nM, Table 3A) is reported as over 1000 nM and the Emax at 1 µM ([1]; read-out: (Emax) GLP-1R at 1 μM, Table 3) is reported as 18%. It also gave an Emax at 1 µM ([1]; read-out: (Emax) GLP-1R at 1 μM, Table 3A) of 18%, an EC50 ([2]; EC50 GIP-R/nM, Table 3) of 10 to 100 nM and an EC50 ([2]; EC50 GIP-R/nM, Table 3A) of 10 to 100 nM. The Emax ([2]; Table 3) was 69% and the Emax ([2]; Table 3A) was 69%.

In the case of `CC[C@H](C)[C@H](NC(=O)[C@H](CO)NC(=O)[C@H](Cc1ccc(O)cc1)NC(=O)[C@H](CC(=O)O)NC(=O)[C@H](CO)NC(=O)[C@@H](NC(=O)[C@H](Cc1ccccc1)NC(=O)[C@@H](NC(=O)CNC(=O)[C@H](CCC(=O)O)NC(=O)CSCC(=O)NCCN1C(=O)CN(C)C1=O)[C@@H](C)O)[C@@H](C)O)C(=O)N[C@@H](Cc1ccc(O)cc1)C(=O)N[C@@H](CC(C)C)C(=O)N[C@@H](CC(=O)O)C(=O)N[C@@H](CCCCN)C(=O)N[C@@H](CCC(N)=O)C(=O)N[C@@H](C)C(=O)N[C@@H](C)C(=O)NC(C)(C)C(=O)N[C@@H](CCC(=O)O)C(=O)N[C@@H](Cc1ccccc1)C(=O)N[C@H](C(=O)N[C@@H](CC(N)=O)C(=O)N[C@@H](Cc1c[nH]c2ccccc12)C(=O)N[C@@H](CC(C)C)C(=O)N[C@@H](CC(C)C)C(=O)N[C@@H](C)C(=O)NCC(=O)NCC(=O)N1CCC[C@H]1C(=O)N[C@@H](CO)C(=O)N[C@@H](CO)C(=O)NCC(=O)N[C@@H](C)C(=O)N1CCC[C@H]1C(=O)N1CCC[C@H]1C(=O)N1CCC[C@H]1C(=O)N[C@@H](CO)C(=O)N[C@@H](CCCCN)C(N)=O)C(C)C` [Compound 112], the Emax ([1]; Table 3) is reported as 94%, the EC50 [1, 3] is reported as 10 to 100 nM and the Emax ([1]; Table 3A) is reported as 94%. It also gave an EC50 [1, 4] of 10 to 100 nM, an EC50 [2, 5] of 10 to 100 nM and an EC50 [2, 6] of 10 to 100 nM. It also gave an Emax at 1 µM [2, 7] of 26% and an Emax at 1 µM ([2]; read-out: (Emax) GIP-R at 1 μM, Table 3A) of 26%.

Work on `CC[C@H](C)[C@H](NC(=O)[C@H](CO)NC(=O)[C@H](Cc1ccc(O)cc1)NC(=O)[C@H](CC(=O)O)NC(=O)[C@H](CO)NC(=O)[C@@H](NC(=O)[C@H](Cc1ccccc1)NC(=O)[C@@H](NC(=O)CNC(=O)[C@H](CCC(=O)O)NC(=O)CCCCCCCN1C(=O)CSC1=O)[C@@H](C)O)[C@@H](C)O)C(=O)N[C@@H](Cc1ccc(O)cc1)C(=O)N[C@@H](CC(C)C)C(=O)N[C@@H](CC(=O)O)C(=O)N[C@@H](CCCCN)C(=O)N[C@@H](CCC(N)=O)C(=O)N[C@@H](C)C(=O)N[C@@H](C)C(=O)NC(C)(C)C(=O)N[C@@H](CCC(=O)O)C(=O)N[C@@H](Cc1ccccc1)C(=O)N[C@H](C(=O)N[C@@H](CC(N)=O)C(=O)N[C@@H](Cc1c[nH]c2ccccc12)C(=O)N[C@@H](CC(C)C)C(=O)N[C@@H](CC(C)C)C(=O)N[C@@H](C)C(=O)NCC(=O)NCC(=O)N1CCC[C@H]1C(=O)N[C@@H](CO)C(=O)N[C@@H](CO)C(=O)NCC(=O)N[C@@H](C)C(=O)N1CCC[C@H]1C(=O)N1CCC[C@H]1C(=O)N1CCC[C@H]1C(=O)N[C@@H](CO)C(=O)N[C@@H](CCCCN)C(N)=O)C(C)C` [Compound 175] yielded an EC50 ([1]; EC50 GLP-1R/nM, Table 3) of 10 to 100 nM, an EC50 ([1]; EC50 GLP-1R/nM, Table 3A) of 10 to 100 nM and an Emax ([1]; Table 3) of 87 to 94%. It also gave an Emax ([1]; Table 3A) of 87 to 94%, an EC50 ([2]; EC50 GIP-R/nM, Table 3) of 10 to 100 nM and an EC50 ([2]; EC50 GIP-R/nM, Table 3A) of 10 to 100 nM. It also gave an Emax ([2]; Table 3) of 38% and an Emax ([2]; Table 3A) of 38%.

With `CC[C@H](C)[C@H](NC(=O)[C@H](CO)NC(=O)[C@H](Cc1ccc(O)cc1)NC(=O)[C@H](CC(=O)O)NC(=O)[C@H](CO)NC(=O)[C@@H](NC(=O)[C@H](Cc1ccccc1)NC(=O)[C@@H](NC(=O)CNC(=O)[C@H](CCC(=O)O)NC(=O)CSCC(=O)NCCN1C(=O)CCC1=O)[C@@H](C)O)[C@@H](C)O)C(=O)N[C@@H](Cc1ccc(O)cc1)C(=O)N[C@@H](CC(C)C)C(=O)N[C@@H](CC(=O)O)C(=O)N[C@@H](CCCCN)C(=O)N[C@@H](CCC(N)=O)C(=O)N[C@@H](C)C(=O)N[C@@H](C)C(=O)NC(C)(C)C(=O)N[C@@H](CCC(=O)O)C(=O)N[C@@H](Cc1ccccc1)C(=O)N[C@H](C(=O)N[C@@H](CC(N)=O)C(=O)N[C@@H](Cc1c[nH]c2ccccc12)C(=O)N[C@@H](CC(C)C)C(=O)N[C@@H](CC(C)C)C(=O)N[C@@H](C)C(=O)NCC(=O)NCC(=O)N1CCC[C@H]1C(=O)N[C@@H](CO)C(=O)N[C@@H](CO)C(=O)NCC(=O)N[C@@H](C)C(=O)N1CCC[C@H]1C(=O)N1CCC[C@H]1C(=O)N1CCC[C@H]1C(=O)N[C@@H](CO)C(=O)N[C@@H](CCCCN)C(N)=O)C(C)C` [Compound 117] the Emax ([1]; Table 3) was 92%, the EC50 [1, 3] was 10 to 100 nM and the Emax ([1]; Table 3A) was 92%. It also gave an EC50 [1, 4] of 1 to 10 nM, an Emax ([2]; Table 3) of 70% and an EC50 [2, 5] of 10 to 100 nM. It also gave an Emax ([2]; Table 3A) of 70% and an EC50 [2, 6] of 10 to 100 nM.

Work on `CC[C@H](C)[C@H](NC(=O)[C@H](CO)NC(=O)[C@H](Cc1ccc(O)cc1)NC(=O)[C@H](CC(=O)O)NC(=O)[C@H](CO)NC(=O)[C@@H](NC(=O)[C@H](Cc1ccccc1)NC(=O)[C@@H](NC(=O)CNC(=O)[C@H](CCC(=O)O)NC(=O)CC(C)(C)CC(=O)NCCN1C(=O)CSC1=O)[C@@H](C)O)[C@@H](C)O)C(=O)N[C@@H](Cc1ccc(O)cc1)C(=O)N[C@@H](CC(C)C)C(=O)N[C@@H](CC(=O)O)C(=O)N[C@@H](CCCCN)C(=O)N[C@@H](CCC(N)=O)C(=O)N[C@@H](C)C(=O)N[C@@H](C)C(=O)NC(C)(C)C(=O)N[C@@H](CCC(=O)O)C(=O)N[C@@H](Cc1ccccc1)C(=O)N[C@H](C(=O)N[C@@H](CC(N)=O)C(=O)N[C@@H](Cc1c[nH]c2ccccc12)C(=O)N[C@@H](CC(C)C)C(=O)N[C@@H](CC(C)C)C(=O)N[C@@H](C)C(=O)NCC(=O)NCC(=O)N1CCC[C@H]1C(=O)N[C@@H](CO)C(=O)N[C@@H](CO)C(=O)NCC(=O)N[C@@H](C)C(=O)N1CCC[C@H]1C(=O)N1CCC[C@H]1C(=O)N1CCC[C@H]1C(=O)N[C@@H](CO)C(=O)N[C@@H](CCCCN)C(N)=O)C(C)C` [Compound 122] yielded an Emax ([1]; Table 3) of 91%, an EC50 [1, 3] of 1 to 10 nM and an Emax ([1]; Table 3A) of 91%. The EC50 [1, 4] was 1 to 10 nM, the EC50 [2, 5] was over 1000 nM and the EC50 [2, 6] was over 1000 nM. It also gave an Emax at 1 µM [2, 7] of under 1%.

Reference: patent publication US20260176320A1, “MODULATORS OF G-PROTEIN COUPLED RECEPTORS” (priority 2018, published 2026)
